Each molecule was assayed against T1, Replicase polyprotein 1ab (Severe acute respiratory syndrome coronavirus 2, UniProt P0DTD1) (assay: Inhibition of SARS-CoV-2 Main protease).
Work on `Cc1ccc(NC[C@H]2CCCCN2)cc1C(=O)N[C@H](C)c1cccc2ccccc12` yielded an IC50 of 1400 nM.
In the case of `Cc1ccc(NC[C@H]2CCCN2)cc1C(=O)N[C@H](C)c1cccc2ccccc12`, the IC50 is reported as 900 nM.
Molecule `Cc1ccc(NCC2CCN2)cc1C(=O)N[C@H](C)c1cccc2ccccc12` (mixture of isomers) has an IC50 of 900 nM.
`Cc1ccc(NC[C@@H]2CCCCN2)cc1C(=O)N[C@H](C)c1cccc2ccccc12` gave an IC50 of 900 nM.
`Cc1ccc(NC(=O)[C@@H]2CCCCN2)cc1C(=O)N[C@H](C)c1cccc2ccccc12` gave an IC50 of 1300 nM.
For `Cc1ccc(NC(N)=O)cc1C(=O)N[C@H](C)c1cccc2ccccc12`, the IC50 was 3800 nM.
`Cc1ccc(NC[C@@H]2CCCN2)cc1C(=O)N[C@H](C)c1cccc2ccccc12` showed an IC50 of 800 nM.
`Cc1ccc(NC(=O)[C@H]2CCCCN2)cc1C(=O)N[C@H](C)c1cccc2ccccc12` showed an IC50 of 300 nM.
For `Cc1ccc(NC[C@@H]2CCCN2C)cc1C(=O)N[C@H](C)c1cccc2ccccc12`, the IC50 was 900 nM.
In the case of `Cc1ccc(NC(=O)C2(N)CC2)cc1C(=O)N[C@H](C)c1cccc2ccccc12`, the IC50 is reported as 3800 nM.
For `Cc1ccc(NC(=O)CN)cc1C(=O)N[C@H](C)c1cccc2ccccc12`, the IC50 was 3300 nM.

What follows are molecules tested against T1, Replicase polyprotein 1ab (assay: Inhibition of SARS-CoV-2 Main protease extracted from Escherichia coli BL21 (DE3) cells measured for 60 mins by FRET based analysis).
For `Cc1ccc(NC(=O)C2CN(C(C)C)CCN2)cc1C(=O)N[C@H](C)c1cccc2ccccc12` (mixture of isomers), the IC50 was 1400 nM.
For `Cc1ccc(NC(=O)NCCN)cc1C(=O)N[C@H](C)c1cccc2ccccc12`, the IC50 was 1100 nM.
In the case of `Cc1ccc(NC[C@]2(C)CCCN2)cc1C(=O)N[C@H](C)c1cccc2ccccc12`, the IC50 is reported as 1200 nM.
In the case of `Cc1ccc(NC(=O)[C@H]2CCCN2)cc1C(=O)N[C@H](C)c1cccc2ccccc12`, the IC50 is reported as 1400 nM.
For `Cc1ccc(NC[C@@H](N)CNC[C@H]2CCCN2)cc1C(=O)N[C@H](C)c1cccc2ccccc12`, the IC50 was 1100 nM.
Work on `Cc1ccc(NCC2(C)CCN2)cc1C(=O)N[C@H](C)c1cccc2ccccc12` (mixture of isomers) yielded an IC50 of 800 nM.
Work on `Cc1ccc(NC[C@H]2CCCCN2C)cc1C(=O)N[C@H](C)c1cccc2ccccc12` yielded an IC50 of 1500 nM.
Molecule `Cc1ccc(NC(=O)CN2CCCC2)cc1C(=O)N[C@H](C)c1cccc2ccccc12` has an IC50 of 1100 nM.
With `Cc1ccc(NC[C@@]2(C)CCCN2)cc1C(=O)N[C@H](C)c1cccc2ccccc12` the IC50 was 1100 nM.
Molecule `Cc1ccc(NC(=O)C2CNCCN2)cc1C(=O)N[C@H](C)c1cccc2ccccc12` (mixture of isomers) has an IC50 of 1500 nM.
`Cc1ccc(NCC2CN(C)CCN2)cc1C(=O)N[C@H](C)c1cccc2ccccc12` (mixture of isomers) showed an IC50 of 1500 nM.
With `Cc1ccc(NC[C@@H]2CCCCN2C)cc1C(=O)N[C@H](C)c1cccc2ccccc12` the IC50 was 1400 nM.
Work on `Cc1ccc(NC(=O)CNCC2CC2)cc1C(=O)N[C@H](C)c1cccc2ccccc12` yielded an IC50 of 1300 nM.
In the case of `Cc1ccc(NCC2CNC2)cc1C(=O)N[C@H](C)c1cccc2ccccc12`, the IC50 is reported as 1000 nM.
With `Cc1ccc(NC2CCN(C[C@@H]3CCCN3)CC2)cc1C(=O)N[C@H](C)c1cccc2ccccc12` the IC50 was 1000 nM.
In the case of `Cc1ccc(NC[C@H]2CCCN2C)cc1C(=O)N[C@H](C)c1cccc2ccccc12`, the IC50 is reported as 1500 nM.

What follows are molecules tested against T1, Replicase polyprotein 1ab (assay: Inhibition of SARS-CoV-2 papain-like protease (PLpro) by enzymatic assay).
Work on `CCn1ccc(-c2cc(-c3ccn(CC)n3)cc([C@@H](C)NC(=O)c3cc(OCCN(C)C)ccc3C)c2)n1` yielded an IC50 of 200 nM.
`CCn1ccc(-c2cc(-c3cnn(C(C)C)c3)cc([C@@H](C)NC(=O)c3cc(OCCN(C)C)ccc3C)c2)n1` showed an IC50 of 200 nM.

Each molecule was assayed against T1, Replicase polyprotein 1ab (assay: Inhibition of SARS-CoV-2 papain-like protease (PLpro) by FRET analysis).
Work on `Cc1ccc(NC2CNC2)cc1C(=O)N[C@H](C)c1cc(-c2cccs2)cc(-c2cccs2)c1` yielded an IC50 of 171 nM.
`Cc1ccc(OCCN2CCOCC2)cc1C(=O)N[C@H](C)c1cc(-c2cccs2)cc(-c2cccs2)c1` gave an IC50 of 360 nM.
With `Cc1ccc(NC(=O)CN(C)C)cc1C(=O)N[C@H](C)c1cc(-c2cccs2)cc(-c2cccs2)c1` the IC50 was 110 nM.
Work on `Cc1ccc(NC(=O)CN)cc1C(=O)N[C@H](C)c1cc(-c2cccs2)cc(-c2cccs2)c1` yielded an IC50 of 140 nM.
`Cc1ccc(NCC2CNC2)cc1C(=O)N[C@H](C)c1cc(-c2cccs2)cc(-c2cccs2)c1` gave an IC50 of 340 nM.
Work on `Cc1ccc(N)cc1C(=O)N[C@H](C)c1cc(-c2cccs2)cc(-c2cccs2)c1` yielded an IC50 of 170 nM.
`Cc1ccc(OCCN2CCCC2)cc1C(=O)N[C@H](C)c1cc(-c2cccs2)cc(-c2cccs2)c1` was tested, and the IC50 was 70 nM.
For `Cc1ccc(OCC[N+](C)(C)C)cc1C(=O)N[C@H](C)c1cc(-c2cccs2)cc(-c2cccs2)c1`, the IC50 was 130 nM.
Molecule `Cc1ccc(NCCN2CCCCC2)cc1C(=O)N[C@H](C)c1cc(-c2cccs2)cc(-c2cccs2)c1` has an IC50 of 110 nM.
`Cc1ccc(OCCN)cc1C(=O)N[C@H](C)c1cc(-c2cccs2)cc(-c2cccs2)c1` gave an IC50 of 60 nM.
`Cc1ccc(NC2CCN(C)CC2)cc1C(=O)N[C@H](C)c1cc(-c2cccs2)cc(-c2cccs2)c1` gave an IC50 of 180 nM.
With `Cc1ccc(NC(=O)C2CCNCC2)cc1C(=O)N[C@H](C)c1cc(-c2cccs2)cc(-c2cccs2)c1` the IC50 was 163 nM.

These molecules were tested against T1, Replicase polyprotein 1ab (assay: Binding affinity to SARS-CoV-2 papain-like protease extracted from Escherichia coli BL21 (DE3) cells assessed as inhibition constant by SPR analysis).
`Cc1ccc(OCCN(C)C)cc1C(=O)N[C@H](C)c1cc(-c2cnn(C)c2)cc(-c2cnn(CCN3CCOCC3)c2)c1` was tested, and the Ki was 20 nM.
`Cc1ccc(OCCN(C)C)cc1C(=O)N[C@H](C)c1cc(-c2cccs2)cc(-c2ccc(CN)s2)c1` showed a Ki of 70 nM.

What follows are molecules tested against T1, Replicase polyprotein 1ab (assay: Inhibition of SARS-CoV-2 papain-like protease).
`Cc1ccc(N2CCN(C(=N)N)CC2)cc1C(=O)NC1(c2cccc3ccccc23)CC1` showed an IC50 of 140 nM.
For `CC(=O)Nc1cccc(Nc2ccc(C)c(C(=O)NC3(c4cccc5ccccc45)CC3)c2)c1`, the IC50 was 500 nM.
`Cc1ccc(N2CCNC(C)C2)cc1C(=O)NC1(c2cccc3ccccc23)CC1` (stereo unspecified) gave an IC50 of 70 nM.
Molecule `Cc1ccc(N2CCN(CC(=O)O)CC2)cc1C(=O)NC1(c2cccc3ccccc23)CC1` has an IC50 of 40 nM.
`Cc1ccc(N2CCN(C)CC2)cc1C(=O)NC1(c2cccc3ccccc23)CC1` gave an IC50 of 20 nM.
With `Cc1ccc(N2CC3CNCC3C2)cc1C(=O)NC1(c2cccc3ccccc23)CC1` (stereo unspecified) the IC50 was 30 nM.
`Cc1ccc(N2CCN(CCC(=O)O)CC2)cc1C(=O)NC1(c2cccc3ccccc23)CC1` showed an IC50 of 110 nM.
`Cc1ccc(N2CC3CN(C)CC3C2)cc1C(=O)NC1(c2cccc3ccccc23)CC1` (stereo unspecified) showed an IC50 of 130 nM.
`Cc1ccc(N2C[C@H]3C[C@@H](C2)N3)cc1C(=O)NC1(c2cccc3ccccc23)CC1` showed an IC50 of 20 nM.
For `Cc1ccc(N2CCNCC2)cc1C(=O)NC1(c2cccc3ccccc23)CC1`, the IC50 was 30 nM.
`Cc1ccc(N)cc1C(=O)NC1(c2cccc3ccccc23)CC1` gave an IC50 of 180 nM.
`C#CC(=O)NNC(=O)CCc1ccccc1C(=O)N[C@H](C)c1cccc2ccccc12` was tested, and the IC50 was 90 nM.
In the case of `Cc1ccccc1C(=O)NC(C)c1cccc2ccccc12` (racemic), the IC50 is reported as 23500 nM.

The molecules below were run against T1, Replicase polyprotein 1ab (assay: Inhibition of SARS-CoV-2 papain-like protease (PLpro) extracted from Escherichia coli BL21 (DE3) cells using RLRGG-AMC as substrate preincubated for 10 mins followed by substrate addition measured for 35 mins by FRET analysis).
`Cc1ccc(NC(=O)[C@@H](CN)NC[C@@H]2CCCN2)cc1C(=O)N[C@H](C)c1cccc2ccccc12` gave an IC50 of 1900 nM.
For `Cc1ccc(NC(=O)[C@@H](N)CCN)cc1C(=O)N[C@H](C)c1cccc2ccccc12`, the IC50 was 1900 nM.
In the case of `Cc1ccc(NC(=O)CCN)cc1C(=O)N[C@H](C)c1cccc2ccccc12`, the IC50 is reported as 1800 nM.
Molecule `Cc1ccc(NCC(C)(C)N)cc1C(=O)N[C@H](C)c1cccc2ccccc12` has an IC50 of 1800 nM.
In the case of `Cc1ccc(NC2CCN(S(C)(=O)=O)CC2)cc1C(=O)N[C@H](C)c1cccc2ccccc12`, the IC50 is reported as 1900 nM.
In the case of `Cc1ccc(NC(=O)[C@@]2(C)CCCN2)cc1C(=O)N[C@H](C)c1cccc2ccccc12`, the IC50 is reported as 1800 nM.
With `Cc1ccc(NC(=O)C2CCN2)cc1C(=O)N[C@H](C)c1cccc2ccccc12` (mixture of isomers) the IC50 was 1800 nM.
`Cc1ccc(NC(=O)C2CN(C)CCN2C)cc1C(=O)N[C@H](C)c1cccc2ccccc12` (mixture of isomers) showed an IC50 of 1700 nM.
With `Cc1ccc(NC2CCN(C[C@H]3CCCN3)CC2)cc1C(=O)N[C@H](C)c1cccc2ccccc12` the IC50 was 1800 nM.
In the case of `Cc1ccc(NC(=O)CN2CCCCC2)cc1C(=O)N[C@H](C)c1cccc2ccccc12`, the IC50 is reported as 1800 nM.

From ChEMBL document CHEMBL6092147, “Design of inhibitors of SARS-CoV-2 papain-like protease deriving from GRL0617: Structure-activity relationships” (Bioorg Med Chem, 2024)
